Experiments:
[1] = pharmacokinetics: serum concentration, steady state concentration
[2] = system: LNCaP/AR cells; experiment: PSA expression readout in LNCaP/AR; assay type: cell-based; conditions: Schemes 18 and 19
[3] = system: LNCaP/AR cells; experiment: LNCaP/AR xenograft in castrate SCID mice; assay type: in vivo
[4] = system: LNCaP (hormone sensitive) cells; experiment: PSA expression readout in normal LNCaP; assay type: cell-based
[5] = system: AR; conditions: cited from earlier work
[6] = system: PSA secretion; experiment: relative PSA level / PSA secretion assay, cell line not named; assay type: cell-based; conditions: vs bicalutamide and 27 as standards, Scheme 9
[7] = system: LAPC4/AR cells; experiment: LAPC4/AR xenograft in castrate SCID mice; assay type: in vivo
[8] = oral, 0.1, 1 and 10 mg/kg once a day, Figure 7
[9] = serum concentration after IV injection, Figure 3

For `CNC(=O)c1ccc(N2C(=S)N(c3ccc(C#N)c(C(F)(F)F)c3)C(=O)C23CCC3)cc1F` [compound 91, N-Methyl-4-[7-(4-cyano-3-trifluoromethylphenyl)-8-oxo-6-thioxo-5,7-diazaspiro-[3.4]oct-5-yl]-2-fluorobenzamide], the “pharmacokinetic (PK) profile” value ([1]; mouse, in vivo) was “superb pharmacokinetic (PK) profile”, the “activity in the hormone refractory LNCaP/AR assay” value [2] was “excellent activity” and the “activity on xenografts over an extended period” value ([3]; 10 mg/kg/day, 31 days, Figure 8) was “retains activity”. For the same molecule, the “effect on LNCaP/AR (HR) tumor size” value ([3]; 10 and 50 mg/kg once a day, vs bicalutamide at the same dose, Figure 6) was “very active”, the “dose required in dose response of tumor volume change” value [3, 8] was “at least 1 mg/kg/day” and the “optimal dose in dose response of tumor volume change” value [3, 8] was 10 mg/kg/day. The “effect on hormone sensitive LNCaP cells (PSA)” value ([4]; 10% FBS, harvest on day 6 and day 10, Scheme 20) was “good activity”.
For `CC1(C)C(=O)N(c2ccc(C#N)c(C(F)(F)F)c2)C(=S)N1CCCCO` [RU59063], the “affinity for the AR” value [5] is given as “nearly equal to that of the well known steroidal agonist R1881”.
In the case of `C[C@]1(O)CC[C@H]2[C@@H]3CCC4=CC(=O)CCC4=C3C=C[C@@]21C` [R1881], the “affinity for the AR” value [5] is given as “slightly higher than that of the natural ligand dihydrotestosterone”.
For `CC1(C)C(=O)N(c2ccc(C#N)c(C(F)(F)F)c2)C(=S)N1c1ccc(N=[N+]=[N-])cc1` [compound 25, 4-[3-(4-Azidophenyl)-4,4-dimethyl-5-oxo-2-thioxoimidazolidin-1-yl]-2-trifluoromethylbenzonitrile], the “relative PSA level vs vehicle (DMSO)” value ([4]; bicalutamide as standard, Scheme 6) was “the best of this group”.
For `Cc1ccc(N2C(=S)N(c3ccc(C#N)c(C(F)(F)F)c3)C(=O)C23CCC3)cc1` [compound 38, 4-(8-Oxo-6-thioxo-5-(4-methylphenyl)-5,7-diazaspiro[3.4]oct-7-yl)-2-trifluoromethylbenzonitrile], the “relative PSA expression levels” value [6] was “comparable to the dimethyl analogue 27”, the “fold change in tumor volume of xenografts” value ([7]; 10 mg/kg, pilot experiment, Figure 1) was “slightly superior” and the “dose response in change in tumor volume of xenografts” value ([7]; castration-resistant xenograft assay, model not named at the place, Figure 2) was “good dose response”. For the same molecule, the clearance [1, 9] was “very rapid clearance” and the half-life [1, 9] was “short half-life”.
